Experiments:
[1] = system: Caco-2 human intestinal cells; format: in vitro ADME; conditions: Caco-2, 18 h
Procedure: The interactions among beta-carotene (B), lutein (L), and astaxanthin (A) were examined using a Caco-2 cell model.
Caco-2 human intestinal cells were grown and maintained on transwell inserts (3.0 μm pores) according to protocol in Failla M L., Chitchumroonchokchai C. (2005) In vitro models as tools for screening the relative bioavailabilities of provitamin A carotenoids in foods. HarvestPlus Technical Monograph Series 3. 32 p. www.harvestplus.org/pdfs/tech03.pdf. Cultures were used at 21 days post-confluency (dpc).
The stock synthetic micelles (SM) containing either β-carotene (B), lutein (L), or astaxanthin (A) was prepared as described by Chitchumroonchokchai et al. (2004).
Treated cells were incubated in humidified environment of 95% air, 5% CO2 at 37° C. for 18 hours before spent medium in apical chamber (AP) and basolateral medium (BL) were collected. All samples were frozen at −80° C. under nitrogen until analysis. Carotenoid analysis in media and cells were quantified as described by Chitchumroonchokchai (See Chitchumroonchokchai C., Schwartz S J., Failla M L. Assessment of lutein bioavailability from meals and supplement using simulated digestion and Caco-2 human intestinal cells. J Nutr. 2004; 134:2280-2286). Protein content of cells was determined by the bicinchoninic acid assay (Pierce—www.piercenet.com/files/1296 as8.pdf). […]

Caco-2 cells = format: in vitro ADME; conditions: human, Caco-2, 4 h
From the text: An in vitro digestion coupled with intestinal culture model was developed to mimic the in vivo absorption of carotenoids. It is important to note that absorption as determined by in vitro digestion is highly correlated with data derived by sampling small intestinal luminal contents from human subjects fed carotenoid rich vegetables and bioavailability data from published human studies.
The interactions among beta-carotene (B), lutein (L), and astaxanthin (A) or astaxanthin ester (AE) were examined using the coupled simulated digestion/Caco-2 cell model. Cellular carotenoids after four hour incubation with micelles generated during simulated digestion of carotenoid-rich oil are presented in Table 2 below.
Simulated digestion: Non-fat yogurt (2.7 g) was homogenized in 10 mL 120 mM salt solution. The mixture was transferred to 50 mL glass test tube. Carotenoid rich oil was carefully added for each reaction (6 replicates per test oil), and total volume of oil was adjusted to 300 μL using soybean oil. The procedure for the simulated digestion followed the standard protocol (See Failla M L., Chitchumroonchokchai C. (2005) In vitro models as tools for screening the relative bioavailabilities of provitamin A carotenoids in foods. HarvestPlus Technical Monograph Series 3. 32 p. www.harvestplus.org/pdfs/tech03.pdf), except that reactions contained pancreatic enzymes and bile extract. […] After completing gastric and small intestinal digestion, an aliquot (9 ml.) of digesta was centrifuged at 12,000×g, 4° C. for 45 min. to isolate aqueous fraction containing micellar carotenoids from residual undigested materials. The aqueous fraction was passed through syringe filter (0.22 μm) to determine carotenoids that partitioned into either aqueous or micellar phase. Aliquots of digesta and aqueous fraction were stored at −20° C. for a maximum of one week before extraction. Beta-carotene and lutein was quantified according to Chitchumrronchokchai et al. (See Chitchumroonchokchai C., Schwartz S J., Failla M L. Assessment of lutein bioavailability from meals and supplement using simulated digestion and Caco-2 human intestinal cells. J Nutr. 2004; 134:2280-2286), and astaxanthin was measured as described in Lin W C et al. (Lin W C, Chien J T, Chen B H. Determination of carotenoids in spear shrimp shells (Parapenaeopsis hardwickii) by liquid chromatography. J Agric Food Chem. 2005 Jun. 29; 53(13):5144-9).
Cell uptake of carotenoids from micelles generated during digestion of oil enriched with individual carotenoids or mixtures of carotenoids: Caco-2 cells (HTB37; passages 25-28) obtained from ATCC ([…]) at passage 19 were maintained in 6-well plastic dishes. The cells were cultured in complete DMEM plus 15% heat inactivated FBS during replication phase. […]

| % Increase in Carotenoid Cellular Uptake Compared to Single Carotenoid, B [1] | % Carotenoid Cellular Uptake, B (Caco-2 cells) | % Increase in Carotenoid Cellular Uptake, B (Caco-2 cells) | % Increase in Carotenoid Cellular Uptake Compared to Single Carotenoid, L [1] | % Carotenoid Cellular Uptake, L (Caco-2 cells) | % Increase in Carotenoid Cellular Uptake, L (Caco-2 cells) | SMILES |
| --- | --- | --- | --- | --- | --- | --- |
| 0.00% | 5.70% | 0.00% | – | – | – | CC1=C(/C=C/C(C)=C/C=C/C(C)=C/C=C/C=C(C)/C=C/C=C(C)/C=C/C2=C(C)CCCC2(C)C)C(C)(C)CCC1 [Beta-carotene, beta-carotene] |
| – | – | – | 0.00% | 6.02% | 0.00% | CC1=C[C@H](O)CC(C)(C)[C@H]1/C=C/C(C)=C/C=C/C(C)=C/C=C/C=C(C)/C=C/C=C(C)/C=C/C1=C(C)C[C@@H](O)CC1(C)C [Lutein, lutein] |

Source: patent publication US9149056B2, “Compositions and methods relating to carotenoids” (The Iams Company, priority 2011, dated 2015)
